According to patent publication EP0495091B1 (Metabasis Therapeutics Inc., priority 1990, dated 1992):
“And” between values parts separate entries of the source, which are not always exact repeats. Equal entries are not always repeated. Where two headings read alike, the source gives them in different places.

Experiments:
[1] = system: platelet aggregation in human whole blood; test: Inhibition of platelet aggregation in human whole blood; type: cell-based; conditions: 10 minutes at 37°C, 10 µM adenosine added 5 minutes before, ADP (6-25 µM) induced, impedance technique
Procedure: Whole blood was drawn from healthy donors and collected in 0.1 vol. of sodium citrate to prevent coagulation. Platelet aggregation was measured by the impedance technique using a Whole Blood Aggregometer.

[2] = system: longitudinal muscle from the guinea pig ileum; test: Inhibition of stimulated contraction in isolated ileum
Procedure: Parallel platinum electrodes were used to deliver electrical current at 1 minute intervals at a voltage adequate to induce contraction of 90% of maximal.

[3] = system: coronary endothelial cells; test: Inhibition of adenosine utilization in cell culture; type: cell-based; conditions: for Inhibition of Adenosine Utilization (%): 1 µM [3H] adenosine, 15 minutes; for inhibition at 5 µM / inhibition at 50 µM: Endothelial cell, read-out: Inhibition of Adenosine Utilization (%)
Procedure: Inhibition of adenosine utilization was determined by measuring the concentration of extracellular adenosine by scintillation counting following separation by thin layer chromatography (TLC).

[4] = molecular target: T1, NBTI-specific adenosine transport site (Homo sapiens, UniProt Q99808); test: [3H]-NBTI binding assay; conditions: 50% displacement of bound [3H]-NBTI (0.5 nM); neuronal membrane protein, 30 minutes, pH 7.4, room temperature; read-out: ED50 (the source's name)
T1 construct: incubated for 30 minutes with 0.5 mg neuronal membrane protein together with 0.5 nM [^3H]-NBTI; from tissue
T1 sequence (Q99808 1-456): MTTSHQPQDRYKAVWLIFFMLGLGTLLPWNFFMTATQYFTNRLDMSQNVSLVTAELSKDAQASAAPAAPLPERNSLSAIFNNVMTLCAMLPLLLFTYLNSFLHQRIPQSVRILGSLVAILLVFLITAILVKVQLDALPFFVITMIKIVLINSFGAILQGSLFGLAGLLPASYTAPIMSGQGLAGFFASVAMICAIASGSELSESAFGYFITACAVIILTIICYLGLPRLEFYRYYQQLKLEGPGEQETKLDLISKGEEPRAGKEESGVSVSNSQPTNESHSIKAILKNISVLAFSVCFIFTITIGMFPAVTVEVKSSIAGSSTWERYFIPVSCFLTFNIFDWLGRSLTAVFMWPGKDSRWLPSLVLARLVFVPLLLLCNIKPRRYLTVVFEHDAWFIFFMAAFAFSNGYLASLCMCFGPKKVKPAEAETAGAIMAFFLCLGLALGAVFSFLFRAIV
Procedure: Increasing concentrations of the test compounds were incubated for 30 minutes with 0.5 mg neuronal membrane protein together with 0.5 nM [^3H]-NBTI in a Tris buffer (pH 7.4) at room temperature. The assays were quenched and membranes collected by rapid filtration. Filters were then solubilized and radioactivity determined by scintillation counting.

[5] = Oral bioavailability and half-life in fasted adult beagles; conditions: dog, in vivo
Procedure: Heparinized blood and urine were collected at selected intervals over 24 hours. Each sample was chilled, centrifuged at 4°C and frozen prior to HPLC analysis.

[6] = system: Anesthetized male dogs; type: in vivo; conditions: n = 6
Procedure: Anesthetized male dogs were instrumented to measure regional myocardial wall thickening during right atrial pacing in the presence of a stenosis of the left anterior descending artery (Young & Mullane Am. J. Physiol. in press (1991)). In Table XIA, the effects on wall thickening and arterial pressure of six repeated episodes of pacing in animals treated with a continuous IV infusion of 50 µg/kg/min of the test compound administered post-pace #1 are compared with saline-treated control animals. […]

[7] = system: Isolated rat hearts; test: Improved functional recovery in isolated hearts (Langendorff, post-ischemic LVDP); conditions: 30 min ischemia, 30 min reperfusion, number in brackets = hearts
Procedure: Isolated rat hearts were cannulated via the ascending aorta and attached to a perfusion apparatus according to the method of Langendorff. The hearts were perfused at a constant pressure of 100 cm of H2O with a modified Krebs-Henseleit buffer (pH 7.4) at 37°C. As a measure of heart function, left ventricular developed pressure (LVDP) was continuously monitored. Following equilibration of the hearts for a period of 30 min., the hearts were subjected to reduced flow i.e. ischemia, by reducing the pressure to 10 cm of H2O for 30 min. Flow was then restored by returning the pressure to its original level (100 cm of H2O) for a further 30 min.

[8] = concentration which inhibited electrically stimulated contraction by 50%, read-out: IC50
[9] = Cavia porcellus, concentration which inhibited electrically stimulated contraction by 50%, read-out: IC50

Compound | EC50 [4] [µM] | IC50 ([2]; Cavia porcellus) [µM] | inhibition at 5 µM [3] [%] | inhibition at 50 µM [3] [%] | IC50 ([1]; Homo sapiens, Platelet) [µM] | further results
NC[C@H]1O[C@@H](n2cnc(C(=O)NCc3ccc([N+](=O)[O-])cc3)c2N)[C@H](O)[C@@H]1O [Compound No. 72] | – | – | – | – | – | IC50 [1]: 300 µM
Cl.NC[C@H]1O[C@@H](n2cnc(C(=O)NCc3ccc(Cl)cc3)c2N)[C@H](O)[C@@H]1O [Compound No. 53, 5-Amino-1-(5-amino-5-deoxy-β-D-ribofuranosyl)imidazole-4-N-[(4-chlorophenyl)methyl]carboxamide Hydrochloride] | ~100 | – | – | – | – | IC50 [2, 8]: 70 µM; IC50 [1]: 150 µM; Inhibition of Adenosine Utilization (%) ([3]; 5 µM test compound): 34 ± 4%; Inhibition of Adenosine Utilization (%) ([3]; 50 µM test compound): 58 ± 2%; Half Life [5]: 5.61 h; Absolute Oral Bioavailability % ([5]; po): 53 (1-468) 32%; % of NON-ISCHEMIC WALL THICKENING ([6]; Pace # 1 (infusion started post-pace #1)): 49.5 ± 6.5%; % of NON-ISCHEMIC WALL THICKENING ([6]; Pace # 2, continuous IV infusion of 50 µg/kg/min): 46.7 ± 7.0%; % of NON-ISCHEMIC WALL THICKENING ([6]; Pace # 3, continuous IV infusion of 50 µg/kg/min): 54.2 ± 9.4 %; % of NON-ISCHEMIC WALL THICKENING ([6]; Pace # 4, continuous IV infusion of 50 µg/kg/min): 48.1 ± 7.6 %; % of NON-ISCHEMIC WALL THICKENING ([6]; Pace # 5, continuous IV infusion of 50 µg/kg/min): 47.5 ± 8.2 %; % of NON-ISCHEMIC WALL THICKENING ([6]; Pace # 6, continuous IV infusion of 50 µg/kg/min): 42.1 ± 7.0 %; Function Recovery % Baseline LVDP (% of hearts) ([7]; 5 µM in perfusion buffer): 85.6±1.8 (10) %
COc1ccc(CNC(=O)c2ncn([C@@H]3O[C@H](CO)[C@@H](O)[C@H]3O)c2N)cc1 [Compound No. 39, 5-Amino-1-β-D-ribofuranosyl-imidazole-4-N-(p-methoxybenzyl)carboxamide] | 600 | 500 | 7 ± 4 | 29 ± 1 | – | –
[N-]=[N+]=NC[C@H]1O[C@@H](n2cnc(C(=O)NCc3ccc([N+](=O)[O-])cc3)c2N)[C@H](O)[C@@H]1O [Compound No. 71, 5-Amino-1-(5-azido-5-deoxy-B-D-ribofuranosyl)imidazole-4-N-[(4-nitrophenyl)methyl]carboxamide] | – | – | – | – | – | IC50 [1]: 40 µM; Inhibition of Adenosine Utilization (%) ([3]; 5 µM test compound): 10 ± 3%; Inhibition of Adenosine Utilization (%) ([3]; 50 µM test compound): 31 ± 11%
Nc1c(C(=O)NCc2ccc(Cl)cc2Cl)ncn1[C@@H]1O[C@H](CO)[C@@H](O)[C@H]1O [Compound No. 25, 5-amino-1-β-D-ribofuranosylimidazole-4-N-[(2,4-dichlorophenyl)methyl]carboxamide] | 72 | 20 | 21 ± 1 | 56 ± 2 | – | Function Recovery % Baseline LVDP (% of hearts) ([7]; 5 µM in perfusion buffer, listed as 25 (1-360)): 86.8±2.3 (6) % and 72.4±1.6 (6) %
Nc1c(C(=O)NCCc2ccc([N+](=O)[O-])cc2)ncn1[C@@H]1O[C@H](CO)[C@@H](O)[C@H]1O [Compound No. 59] | 2 | – | – | – | 70 | Function Recovery % Baseline LVDP (% of hearts) ([7]; 1 µM in perfusion buffer): 75.8±2.2 (7) %
Nc1c(C(=O)SCc2ccc([N+](=O)[O-])cc2)ncn1[C@@H]1O[C@H](CO)[C@@H](O)[C@H]1O | 0.5 | 10 | 17 ± 3 | 19 ± 2 | – | Function Recovery % Baseline LVDP (% of hearts) ([7]; 1 µM in perfusion buffer): 74.0±2.8 (6) %
Cc1ccc(CNC(=O)c2ncn([C@@H]3O[C@H](CO)[C@@H](O)[C@H]3O)c2N)cc1 [Compound No. 30, 5-amino-1-β-D-ribofuranosylimidazole-4-N-[(4-methylphenyl)methyl]carboxamide] | 225 | 20 | 21 ± 1 | 49 ± 4 | – | –
NC[C@H]1O[C@@H](n2cnc(C(N)=O)c2N)[C@H](O)[C@@H]1O [Compound No. 21, 5'-Amino-5'-deoxy-AICA-riboside] | – | – | – | – | – | IC50 [2, 9]: 800 µM; bioavailability ([5]; po, fasted adult beagles, 10 mg/kg IV bolus and 20 mg/kg solution via stomach tube, read-out: Absolute Oral Bioavailability %): 71%; half-life ([5]; fasted adult beagles): 1.3 h; Function Recovery % Baseline LVDP (% of hearts) ([7]; 1 µM in perfusion buffer): 77.0±4.4 (10) %; Function Recovery % Baseline LVDP (% of hearts) ([7]; 5 µM in perfusion buffer): 81.0±3.2 (8) %
NC(=O)c1nc(Sc2ccccc2)n([C@@H]2O[C@H](CO)[C@@H](O)[C@H]2O)c1N [Compound No. 43, 5-Amino-2-thiophenyl-1-β-D-ribofuranosylmidazole-4-carboxamide] | 71 | 200 | – | – | 620 | –
CCCCO[C@@H]1[C@H](O)[C@@H](CO)O[C@H]1n1cnc(C(N)=O)c1N [Compound No. 32, 5-amino-1-(2-O-n-butyl-β-D-ribofuranosyl) imidazole-4-carboxamide] | – | – | – | – | 350 | IC50 [2, 9]: 100 µM
C[C@H]1O[C@@H](n2cnc(C(=O)NCc3ccc(Cl)cc3)c2N)[C@H](O)[C@@H]1O [Compound No. 61, 5-Amino-1-(5-deoxy-β-D-ribofuranosyl) imidazole-4N-[(4-chlorophenyl)methyl]carboxamide] | 32 | – | 37 ± 28 | 72 ± 5 | 171 | –
Nc1c(C(=O)NCc2ccc([N+](=O)[O-])cc2)ncn1[C@@H]1O[C@H](CO)[C@@H](O)[C@H]1O [Compound No. 23, 5-Amino-1-β-D-ribofuranosyl-imidazole-4-N-[(4-nitrophenyl)methyl]carboxamide] | 3 | 3 | 27 ± 4 | 63 ± 2 | 38 | Function Recovery % Baseline LVDP (% of hearts) ([7]; 1 µM in perfusion buffer): 79.0±2.3 (6) %
NC(=O)c1ncn([C@@H]2O[C@H](CCl)[C@@H](O)[C@H]2O)c1N [Compound No. 26, 5-amino-1-(5-chloro-5-deoxy-β-D-ribofuranosyl) imidazole-4-carboxamide] | – | – | – | – | – | IC50 [2, 8]: 200 µM; Function Recovery % Baseline LVDP (% of hearts) ([7]; 5 µM in perfusion buffer): 70.7±4.1 (8) %
Nc1c(C(=O)NCc2cccc([N+](=O)[O-])c2)ncn1[C@@H]1O[C@H](CO)[C@@H](O)[C@H]1O [Compound No. 28, 5-amino-1-β-D-ribofuranosylimidazole-4-N-[(3-nitrophenyl)methyl]carboxamide] | 15 | – | 17 ± 3 | 47 ± 2 | 180 | –
NC(=O)c1nc(S)n([C@@H]2O[C@H](CO)[C@@H](O)[C@H]2O)c1N [Compound No. 27, 5-amino-2-thio-1-β-D-ribofuranosyl imidazole-4-carboxamide] | 344 | 500 | – | – | 950 | Function Recovery % Baseline LVDP (% of hearts) ([7]; 5 µM in perfusion buffer): 74.6±3.7 (7) %
Nc1c(C(=O)NCc2ccc(Cl)cc2)ncn1[C@@H]1O[C@H](CO)[C@@H](O)[C@H]1O [Compound No. 29, 5-amino-1-β-D-ribofuranosylimidazole-4-N-[(4-Chlorophenyl)methyl]carboxamide] | 100 | 60 | 41 ± 11 | 67 ± 8 | 90 | Function Recovery % Baseline LVDP (% of hearts) ([7]; 1 µM in perfusion buffer): 76.7±2.9 (7) %
Nc1c(C(=O)NCc2ccc(Br)cc2)ncn1[C@@H]1O[C@H](CO)[C@@H](O)[C@H]1O [Compound No. 56, 5-Amino-1-β-D-ribofuranosyl-imidazole-4-N-[(4-bromophenyl)methyl]carboxamide] | 32 | – | 55 ± 7 | 65 ± 9 | 75 | –
